In the NIST ThermoML archive (doi:10.1021/je100832h):

Tests used:
[1] = xn = mol fraction of the nth substance listed; settings: 101.32 kPa, Liquid, Vibrating tube method
[2] = Liquid; for mass density: 101.32 kPa, Vibrating tube method
[3] = excess molar enthalpy (molar enthalpy of mixing); xn = mol fraction of the nth substance listed; settings: 291.15 K, 101 kPa, Liquid, Calvet calorimetry

CCOC(C)=O [ethyl acetate] + CCCCC
[1], x1 = 1
Settings	mass density [kg/m3]
291.15 K	902.88
298.15 K	894.4

CCOC(C)=O [ethyl acetate] + CCCCCCCC
[1], x1 = 1
Settings	mass density [kg/m3]
291.15 K	902.88
298.15 K	894.4
318.15 K	869.6
328.15 K	857.17

CCOC(C)=O [ethyl acetate] + CCCCCCCCC
[1], x1 = 1
Settings	mass density [kg/m3]
291.15 K	902.88
298.15 K	894.4
318.15 K	869.6
328.15 K	857.17

CCOC(C)=O [ethyl acetate] + CCCCCCCCCC
[1], x1 = 1
Settings	mass density [kg/m3]
291.15 K	902.88
298.15 K	894.4
318.15 K	869.6
328.15 K	857.17

CCCCCCC [heptane] + CCOC(C)=O
[1], x2 = 0
Settings	mass density [kg/m3]
291.15 K	685.28
298.15 K	679.48
318.15 K	662.06
328.15 K	653.6

CCCCCC [hexane] + CCOC(C)=O
[1], x2 = 0
Settings	mass density [kg/m3]
291.15 K	661.17
298.15 K	654.9
318.15 K	636.5
328.15 K	627

CCCCCCCC [octane]
[2]
Settings	mass density [kg/m3]
291.15 K	704.13
298.15 K	698.6
318.15 K	682.16
328.15 K	674.15

[2], Ebulliometric method (Recirculating still)
Settings	vapor or sublimation pressure [kPa]
350.64 K	21.09
353.05 K	23.14
355.76 K	25.56
356.97 K	26.7
358.82 K	28.55
361.59 K	31.58
363.86 K	34.16
365.82 K	36.53
367.65 K	38.88
369.09 K	40.82
370.77 K	43.19
372.39 K	45.57
374.01 K	48.04
375.61 K	50.59
377 K	52.9
378.25 K	55.02
380.03 K	58.2
381.34 K	60.63
382.42 K	62.68
383.64 K	65.07
384.76 K	67.34
386.29 K	70.52
387.45 K	73.02
388.55 K	75.43
389.65 K	77.94
390.56 K	80.05
391.6 K	82.51
392.6 K	84.94
393.47 K	87.09
394.37 K	89.39
395.14 K	91.38
396.04 K	93.64
396.95 K	96.14
397.9 K	98.73
398.19 K	99.59
398.59 K	100.68
398.83 K	101.32
399.61 K	103.61
400.53 K	106.23
401.23 K	108.3
402.03 K	110.71
402.81 K	113.09
403.32 K	114.65
403.81 K	116.17
404.1 K	117.1
404.79 K	119.25
405.51 K	121.6
406.27 K	124.1
407.03 K	126.61
407.89 K	129.5
408.75 K	132.46
409.62 K	135.53
410.15 K	137.42
410.83 K	139.87
422.1 K	185.56
422.64 K	188.02
423.26 K	190.85
423.76 K	193.15
424.15 K	195.02
424.76 K	197.87
425.2 K	199.97

CCCCC [pentane]
[2]
Settings	mass density [kg/m3]	vapor or sublimation pressure [kPa]
291.15 K	628.22	–
298.15 K	621.35	–
309.3 K	–	101.32

CCCCC [pentane] + CCOC(C)=O
mass density [kg/m3], [1]
Settings	291.15 K	298.15 K
x2 = 0	628.22	621.35
x2 = 0.0126	630.77	–
x2 = 0.026	–	626.34
x2 = 0.0577	640.44	–
x2 = 0.0607	–	633.6
x2 = 0.0897	–	639.94
x2 = 0.0922	648.09	–
x2 = 0.1609	–	655.94
x2 = 0.1813	668.69	–
x2 = 0.2315	–	672.51
x2 = 0.2507	685.25	–
x2 = 0.3028	–	690.12
x2 = 0.3232	703.25	–
x2 = 0.3576	–	703.99
x2 = 0.3916	721.01	–
x2 = 0.4301	–	722.92
x2 = 0.4566	738.23	–
x2 = 0.4703	–	733.71
x2 = 0.5276	–	749.44
x2 = 0.5296	758.09	–
x2 = 0.5916	775.48	–
x2 = 0.6517	792.81	–
x2 = 0.6553	–	785.76
x2 = 0.7126	–	802.69
x2 = 0.7164	812.13	–
x2 = 0.7725	–	820.79
x2 = 0.7788	831.21	–
x2 = 0.8245	–	836.93
x2 = 0.8582	856.32	–
x2 = 0.8825	–	855.3
x2 = 0.8961	868.57	–
x2 = 0.9342	–	872.31
x2 = 0.9693	892.55	–
x2 = 0.9896	–	890.79

[3]
Settings	excess molar enthalpy [kJ/mol]
x2 = 0.0628	0.325
x2 = 0.1353	0.581
x2 = 0.2024	0.811
x2 = 0.2623	0.97
x2 = 0.3345	1.15
x2 = 0.4047	1.24
x2 = 0.4549	1.28
x2 = 0.514	1.28
x2 = 0.5664	1.26
x2 = 0.6434	1.18
x2 = 0.7049	1.07
x2 = 0.7712	0.923
x2 = 0.8427	0.733
x2 = 0.9116	0.495
x2 = 0.9483	0.272
